The values below come from PubChem BioAssay AID2305 (GlaxoSmithKline (GSK), 2010).

Where “and” joins values, the source holds several entries; their conditions need not be identical. Identical values can stand only once.

The subject of this assay is P. falciparum 3D7 growth, pLDH absorbance. The assay is described as follows: blood-stage malaria parasite growth potency – strain 3D7, dose response (AID 2305).
In general, IC50 refers to the concentration at which inhibition is half-maximal. As for `c1ccc(CCNc2ccnc(Nc3ccc4n[nH]nc4c3)n2)cc1`, the IC50 was 860 nM. The figure for `CC(C)C[C@@H](/C=N/N1CCOC1=O)NC(=O)[C@H](CC(C)C)NC(=O)c1ccc(OCCN2CCOCC2)cc1` is 220 nM; for `Cc1cc(N[C@@H](Cc2ccccc2)C(=O)NC2CCCC2)nc(NCCc2cccs2)n1` it is 1400 nM; for `O=C(Nc1cccc(CN2CCCN(Cc3ccsc3)CC2)c1)c1cc2ccccc2s1` it is 760 nM.

Compound `O=C(c1cccs1)N(Cc1cccc(-c2ccc(CNCCc3ccccc3)cc2)c1)C1CCN(Cc2ccccc2)CC1` gave an IC50 of 860 nM. The figure for `CC1CCc2c(C(=O)Nc3c(F)cc(F)cc3Br)csc2C1` (configuration not stated) is 750 nM. `Cc1cc(CNCCCCCCCNCc2cccc([N+](=O)[O-])c2)ccc1O` yielded an IC50 of 640 nM. The figure for `CC1(C)CCCN(C(=O)Cc2ccc3c(c2)CCCC3)C1CN1CC=CC1` (configuration not stated) is 720 nM; for `CCNC(=O)c1ccc2c(c1)c(C)c(C)n2Cc1ccc(F)cc1` it is 770 nM; for `OC(CNc1ccnc(Nc2ccc(Cl)cc2)n1)c1cccc(C(F)(F)F)c1` (configuration not stated) it is 680 nM. The figure for `CCC1CCCCN1S(=O)(=O)c1ccc(OC)c(N2CCN(C(=O)C(Cl)(Cl)Cl)CC2)c1` (configuration not stated) is 1120 nM; for `CCOC(=O)c1ccc(NCc2ccccn2)cc1` it is 630 nM; for `Cc1cccc2[nH]c(-c3ccc(-c4ccc(NC(=O)C(=O)c5cccn5C)cc4)cc3)nc12` it is 820 nM. Take `COc1cc(NCCCNCc2cn(Cc3cc(Br)cc(Br)c3)c3ccccc23)nc2ccccc12`: the concentration for half-maximal inhibition (IC50) was determined as 180 nM. The figure for `Cc1ccc(C(=O)Cn2nc(-c3ccc(C)c(S(=O)(=O)N4CCCC4)c3)ccc2=O)cc1` is 510 nM; for `O=c1cc(NCCCNCc2cc(F)cc(C(F)(F)F)c2)[nH]c2ccccc12` it is 1200 nM; for `CCNc1cc(C(=O)N[C@@H](Cc2ccccc2)[C@H](O)CNC(C)C)cc(N2CC(c3ccccc3)CCS2(=O)=O)c1` (some centres not stated) it is 410 nM.

Compound `COc1cc(Br)c(S(=O)(=O)n2cc(CN3CCC(N)CC3)c3cc(Cl)ccc32)cc1OC` had a half-inhibitory concentration (IC50) of 990 nM.

Compound `CC(=O)CC(=O)N1CCN(c2ccccc2)CC1` registered a half-inhibitory concentration (IC50) of 1060 nM. `CC(C)N1CCN(C(=O)c2ccc(CNCCCN3CCN(c4ccccc4C(F)(F)F)CC3)s2)CC1` yielded a half-inhibitory concentration (IC50) of 840 nM. The figure for `CCC(CSC1CCCCC1)N(C)CCN(C)C(CC)CSC1CCCCC1` (configuration not stated) is 310 nM.

`COc1cccc(Nc2nc(C)cc(Nc3cccc(C#N)c3)n2)c1` yielded an IC50 of 1080 nM. The figure for `Cc1cc(NC(=O)c2ccco2)ccc1OC1CCN(Cc2ccccc2)CC1` is 530 nM. As for `CN(C)CCCOC(=O)c1cc2cc(-c3ccccc3)ccc2n1S(=O)(=O)Cc1ccccc1`, the IC50 was 360 nM. The figure for `CC(C)c1ccc(OCC(O)CN(C)C(C)C(O)c2ccccc2)c(Br)c1` (configuration not stated) is 810 nM.

In turn, `CC(C)C1C(O)=C(c2ccc3ccccc3c2)C(=O)N1Cc1ccsc1` (configuration not stated) gave a half-maximal inhibitory concentration (IC50) of 1070 nM. The figure for `COc1cc(CCNC(=O)Cc2ccc3ccccc3c2)ccc1OCc1ccccc1` is 1020 nM; for `CN(C)c1ccc(-c2csc(C(=O)NC3CCCCN(CCC(C)(C)C)C3)c2)cc1` (configuration not stated) it is 1050 nM.

Compound `CC(C)C1=CC(=NOS(=O)(=O)c2ccccc2)C=C(C(C)C)C1=O` gave a 50% inhibitory concentration (IC50) of 710 nM. The IC50 values of the last two compounds are within 1.5-fold of each other. Compound `C[C@H](Cc1ccc(OCCCOc2ccc(C[C@@H](C)NC[C@H](O)c3cccc(Cl)c3)cc2)cc1)NC[C@H](O)c1cccc(Cl)c1` yielded an IC50 of 780 nM. The figure for `CCOc1ccc(C2CCN(CCCCNC(=O)c3ccc(NC(=O)c4ccc(Cl)cc4)cc3)CC2)c(CC)c1` is 790 nM; for `COCCNCc1cccc(-c2ccc3c(Nc4cc(O)c(Cl)cc4F)ccnc3c2)c1` it is 110 nM. The figure for `Oc1ccc2c(c1NCC1CCCCC1)CCCC2` is 510 nM; for `CC(C)(C)c1ccc(NC(=O)c2ccc(CN3CCCN(Cc4ccc(F)cc4)CC3)cc2)cc1` it is 1110 nM; for `Cc1cc(NN=Cc2ccccn2)c2cc(C(F)(F)F)ccc2n1` it is 620 nM. The figure for `CCc1ccc2c(c1O)CCN(C)C2Cc1ccccc1Cl` (configuration not stated) is 250 nM; for `COc1ccccc1N1CCN(c2cccc3c2nc(-c2cncc(C#N)c2)n3CCNCc2ccccc2)CC1` it is 710 nM. On to `CCNc1cc(C(=O)N[C@@H](Cc2ccccc2)[C@H](O)CNCCC(C)(C)C)c(F)c(N2CCCCS2(=O)=O)c1`, for which the IC50 was determined as 800 nM. The figure for `CC(C)COc1ccc(Cl)cc1Cc1nc(-c2nc3ccc(CN(C)C)cc3[nH]2)co1` is 710 nM. The figure for `O=C(/C=C/c1c(Cl)cccc1Cl)NC1CCC(CN2CCC(c3c[nH]c4ccccc34)CC2)CC1` (configuration not stated) is 370 nM and 810 nM. For the compound `Fc1ccc2[nH]c3c(NCCCN4CCOCC4)ncnc3c2c1`, the IC50 was determined as 710 nM. In the case of `Cc1onc(-c2ccccc2)c1-c1nc(NCCC(c2ccccc2)c2ccccc2)no1`, the half-maximal inhibitory concentration (IC50) amounted to 840 nM. The figure for `O=C(Nc1ccc(Cl)cc1)Nc1ccc(OCC(O)CN2CCCCC2)cc1` (configuration not stated) is 1160 nM. The figure for `COc1cccc(CN2Cc3ccccc3OC3(CCN(Cc4c[nH]c5cnccc45)CC3)C2)c1` is 1300 nM; for `O=C(Nc1nc2cc(S(=O)(=O)NCCc3cccc(F)c3)ccc2n1CCCn1ccnc1)c1ccc(Cl)cc1` it is 1270 nM; for `Nc1ncc(-c2ccc(F)c(Cl)c2)c(N)n1` it is 1230 nM. The figure for `O=C(Cn1c(CCc2cccc(F)c2F)cc(=O)c2ccccc21)N(CCN1CCCC1)Cc1ccc(-c2ccc(C(F)(F)F)cc2)cc1` is 860 nM. As to `FC(F)(F)c1ccc2nccc(NCc3ccccc3)c2c1`, the half-maximal inhibitory concentration (IC50) came to 1150 nM.

As to `Cc1cc(C(=O)NC2CCN(CC3(c4ccc(Cl)cc4)CCC3)CC2)on1`, the IC50 worked out at 90 nM. The figure for `COc1cc(NC(=O)CCCN2CCN(c3cccc(Cl)c3Cl)CC2)ccc1N1CCN(C(C)C)CC1` is 950 nM; for `Fc1ccccc1COc1ccc(Nc2ncnc3ccc(I)cc23)cc1Cl` it is 930 nM; for `CCN(CC)CCN(Cc1ccc(-c2ccc(C(F)(F)F)cc2)cc1)C(=O)Cn1c(CCc2c(F)cccc2F)nc(=O)c2ccccc21` it is 640 nM. The figure for `Cc1sc2ncnc(Sc3nc4ccccc4[nH]3)c2c1C` is 260 nM; for `O=C(NCC1Cc2cc(Oc3ccccc3)ccc2O1)c1ccc([N+](=O)[O-])o1` (configuration not stated) it is 920 nM. Consider `Cc1ccc(Cc2cnc(CN3CCCCC3)c(O)c2)cc1`, for which the half-inhibitory concentration (IC50) stood at 890 nM. The figure for `Cc1ccc(-c2cncc(-c3cc(NC4CCN(Cc5ccccc5)CC4)nc(-c4ccccc4)n3)c2)cc1` is 720 nM; for `Nc1cc(C=Cc2ccc([N+](=O)[O-])o2)nc2ccccc12` it is 370 nM.

`CCC(C)c1ccc(Nc2nc(C)cc(N(CC)CCCN3CCCCC3)n2)cc1` (configuration not stated) came in with an IC50 of 330 nM. Consider `CC(C)CN1CCN(c2nc(C#N)c3c(c2C(=S)NC2CCCCC2)CC(C)(C)OC3)CC1`, for which the IC50 was found to be 300 nM. The figure for `CCCN(CCC)CCCOc1ccc(C(=O)c2c(-c3ccc(OCCCN(CCC)CCC)cc3)oc3ccc(Cl)cc23)cc1` is 340 nM; for `CN1CCCN(Cc2ccc(-c3cccc(NC(=O)c4cccc(F)c4)c3)cc2)CC1` it is 980 nM; for `O=C(Nc1ccc2c(c1)CCCN2S(=O)(=O)c1cccs1)c1cc([N+](=O)[O-])ccc1Cl` it is 840 nM. In turn, `COCCNCc1ccc(-c2cccc(CN(C(=O)NCCc3ccccc3)C3CCN(Cc4ccccc4)CC3)c2)cc1` displayed a 50% inhibitory concentration (IC50) of 920 nM. In turn, `CCOc1cc(C(=O)Nc2ccccc2N2CCN(S(C)(=O)=O)CC2)cc(OCC)c1OCC` registered a half-maximal inhibitory concentration (IC50) of 650 nM. The figure for `O=C(Nc1ccc(Br)c(C(F)(F)F)c1)c1cccc([N+](=O)[O-])c1` is 910 nM.

Compound `CCCC(C)Nc1nc(C)cc(N[C@@H](CC(C)C)C(=O)NCCOc2ccccc2)n1` (some centres not stated) registered a concentration for half-maximal inhibition (IC50) of 1710 nM.

`COc1ccc2c(=O)c(C3CCC(c4ccc(Cl)cc4)CC3)c(C)[nH]c2c1` (configuration not stated) came in with an IC50 of 650 nM. As to `Cc1ncc(CN2CCC(C(=O)Nc3ccc(-c4nc5ccccc5o4)cc3)CC2)s1`, the concentration for half-maximal inhibition (IC50) stood at 390 nM. Against the preceding compound, the IC50 is about 1.7-fold lower. On to `O=C(NC1CC1)c1cnc(N2CCC(Cc3ccccc3)CC2)c(Cl)c1`, for which the IC50 was 670 nM.

Consider `N#Cc1cncc(-c2nc3c(N4CCC(N5CCCC5)CC4)cccc3n2CCNCc2ccccc2)c1`, for which the 50% inhibitory concentration (IC50) amounted to 870 nM. The figure for `CCN(CC)CCN(CCCc1ccc(-c2ccc(C(F)(F)F)cc2)cc1)C(=O)Cn1c(CCc2cccc(F)c2F)nc(=O)c2ccccc21` is 770 nM; for `CON(C)C(=O)[C@@H](CCCCNC(=O)OCc1ccccc1)NC(=O)OC(C)(C)C` it is 190 nM.

Turning to `COC(=O)c1ccc(CC(C)NCC(O)c2cccc(OC(F)(F)F)c2)cc1` (configuration not stated), the IC50 is 860 nM. `O=C(NC1CCN(CCN2CCc3ccccc3CC2)CC1)c1ccc(-c2ccc(C(F)(F)F)cc2)cc1`: the IC50 is 930 nM. The IC50 values of the last two compounds are within 1.5-fold of each other. The figure for `COc1ccc2ncc(F)c(CCN3C[C@H](CNCc4ccc5c(c4)OCCO5)[C@H](O)C3)c2n1` is 930 nM; for `COc1cc(NC(=O)/C=C/c2ccccc2Cl)cc(OCCN2CCC(O)(c3ccccc3)CC2)c1` it is 170 nM; for `O=C(Cc1cccs1)NC(CCCN1CCC(Oc2cccc(Cl)c2)CC1)c1ccc(Cl)c(Cl)c1` (configuration not stated) it is 250 nM. As to `Fc1ccc(Nc2ccnc3cc(-c4ccc(CNCCN5CCOCC5)o4)ccc23)c(Cl)c1`, the 50% inhibitory concentration (IC50) was determined as 190 nM. This IC50 and that of the compound before are within 1.5-fold of each other. `Nc1nccc(-c2ccc3c(-c4cccc(F)c4)cnc(N)c3c2)n1` had a half-inhibitory concentration (IC50) of 1020 nM. In turn, `CCc1cccc(-n2nc(OCC(=O)NC3CCCC3)c3cccnc32)c1` showed a half-maximal inhibitory concentration (IC50) of 930 nM.

`C[C@@H]1CN(c2nc(NCCc3ccc(O)cc3)nc(NCc3ccccc3-c3ccc(C(F)(F)F)cc3)n2)C[C@H](C)N1` came in with a 50% inhibitory concentration (IC50) of 530 nM. The figure for `O=C(Cc1cc(=O)oc2cc(O)ccc12)NC1CCC(CN2CCC(c3c[nH]c4ccccc34)CC2)CC1` (configuration not stated) is 1130 nM; for `NC1=NC(Cc2ccccc2)N(c2ccc(Cl)cc2)C(N)=N1` (configuration not stated) it is 140 nM; for `CN1CCCC(COc2cc3c(cc2Br)CCN3C(=O)Nc2ccc(-c3ccncc3)c(Cl)c2)C1` (configuration not stated) it is 230 nM. The figure for `NC1CCN(Cc2cccc(-c3ccc(-c4nc5ccc(C(F)(F)F)cc5[nH]4)cc3)c2)C1` (configuration not stated) is 700 nM; for `Cc1ccc2nc3c(cc(C(=O)NCCc4ccccc4)c(=N)n3CCCOC(C)C)c(=O)n2c1` it is 890 nM. In the case of `COc1ccc(NC(=O)c2ccc(-c3cc(NC(=O)c4ccnc(N5CCCC5)c4)ccc3C)s2)cc1N1CCN(C)CC1`, the half-inhibitory concentration (IC50) was determined as 250 nM. Against the preceding compound, the IC50 is about 3.6-fold lower.
